Several values for one entry are separate records, joined by “and”; a condition that tells them apart may be missing. Equal values may be shown once. Toxic doses and inconclusive results are not listed.

The test system of the test is BDF1 mice, B16 melanoma ip, median survival T/C. Nature of the test: NCI In Vivo Anticancer Drug Screen. Data for tumor model B16 Melanoma (intraperitoneal) in B6D2F1 (BDF1) mice. The settings on record: endpoint: median survival time, higher = longer survival. As to the method:
The antitumor activity of compounds was measured in mice bearing transplantable tumors. Survival or tumor size were measured and the results are expressed as the measurement made in the treated group (T) divided by the measurement made in the vehicle treated control group (C). The tumor model used in this assay is B16 Melanoma (intraperitoneal) in B6D2F1 (BDF1) mice

The mark [1] stands for this setting: dose: 12.5 mg/kg/injection, schedule: Q01DX009 (ip), vehicle: Klucel (hydroxypropylcellulose) (HPC).
Setting [2] is: dose: 25.0 mg/kg/injection, schedule: Q01DX009 (ip), vehicle: Klucel (hydroxypropylcellulose) (HPC).
[3] abbreviates: dose: 50.0 mg/kg/injection, schedule: Q01DX009 (ip), vehicle: Klucel (hydroxypropylcellulose) (HPC).
[4] abbreviates: dose: 100.0 mg/kg/injection, schedule: Q01DX009 (ip), vehicle: saline.
[5] abbreviates: dose: 200.0 mg/kg/injection, schedule: Q01DX009 (ip), vehicle: saline.
Setting [6] is: dose: 50.0 mg/kg/injection, schedule: Q01DX009 (ip), vehicle: saline.
Where [7] appears, read: dose: 6.25 mg/kg/injection, schedule: Q01DX009 (ip), vehicle: Klucel (hydroxypropylcellulose) (HPC).
Setting [8] is: dose: 0.78 mg/kg/injection, schedule: Q01DX009 (ip), vehicle: saline.
Where [9] appears, read: dose: 1.56 mg/kg/injection, schedule: Q01DX009 (ip), vehicle: saline.
[10] abbreviates: dose: 12.5 mg/kg/injection, schedule: Q01DX009 (ip), vehicle: saline with Tween-80.
Where [11] appears, read: dose: 25.0 mg/kg/injection, schedule: Q01DX009 (ip), vehicle: saline with Tween-80.
Setting [12] is: dose: 6.25 mg/kg/injection, schedule: Q01DX009 (ip), vehicle: saline.
Where [13] appears, read: dose: 12.5 mg/kg/injection, schedule: Q01DX009 (ip), vehicle: saline.

`CC(=O)C(O)N1C(=O)C=CC1=O` (centres undefined): the T/C reads like this: (dose: 0.32 mg/kg/injection, schedule: Q01DX009 (ip), vehicle: saline with Tween-80) 100 % of control; (dose: 0.63 mg/kg/injection, schedule: Q01DX009 (ip), vehicle: saline with Tween-80) 108 % of control; (dose: 1.25 mg/kg/injection, schedule: Q01DX009 (ip), vehicle: saline with Tween-80) 111 % of control; (dose: 2.5 mg/kg/injection, schedule: Q01DX009 (ip), vehicle: saline with Tween-80) 105 % of control; (dose: 5.0 mg/kg/injection, schedule: Q01DX009 (ip), vehicle: saline with Tween-80) 105 % of control.
Regarding `CCCCCCCCCCCCCCCC(=O)N(CCCN)C(C)CCCN(CC)CC` (centres undefined), the T/C reads like this: under setting [1], 105 % of control; under setting [2], 100 % of control; under setting [3], 107 % of control; (dose: 100.0 mg/kg/injection, schedule: Q01DX009 (ip), vehicle: Klucel (hydroxypropylcellulose) (HPC)) 101 % of control.
Consider `c1ccc2c(NCCCCCCCCNc3c4ccccc4nc4ccccc34)c3ccccc3nc2c1`, for which the T/C was 151 % of control and 159 % of control (dose: 5.0 mg/kg/injection, schedule: Q01DX009 (ip), vehicle: Klucel (hydroxypropylcellulose) (HPC)); 164 % of control (dose: 10.0 mg/kg/injection, schedule: Q01DX009 (ip), vehicle: Klucel (hydroxypropylcellulose) (HPC)); 156 % of control (dose: 20.0 mg/kg/injection, schedule: Q01DX009 (ip), vehicle: Klucel (hydroxypropylcellulose) (HPC)).
Consider `COc1cccc2c1C(=O)c1c(O)c3c(c(O)c1C2=O)C[C@@](O)(C(=O)COC(=O)Cc1cccc2ccccc12)C[C@@H]3OC1CC(N)C(O)C(C)O1` (some centres undefined), for which the T/C is, setting by setting: (dose: 0.5 mg/kg/injection, schedule: Q01DX009 (ip), vehicle: saline with Tween-80) 169 % of control; (dose: 1.0 mg/kg/injection, schedule: Q01DX009 (ip), vehicle: saline with Tween-80) 150 % of control and 227 % of control; (dose: 2.0 mg/kg/injection, schedule: Q01DX009 (ip), vehicle: saline with Tween-80) 169 % of control and 238 % of control; (dose: 4.0 mg/kg/injection, schedule: Q01DX009 (ip), vehicle: saline with Tween-80) 192 % of control and 284 % of control.
For `CC(C)C1NC(=O)NC1=O` (centres undefined), the T/C is 100 % of control under setting [4]; 100 % of control (dose: 100.0 mg/kg/injection, schedule: Q04DX003 (ip), vehicle: saline); 95 % of control under setting [5]; 106 % of control (dose: 200.0 mg/kg/injection, schedule: Q04DX003 (ip), vehicle: saline); 100 % of control (dose: 400.0 mg/kg/injection, schedule: Q01DX009 (ip), vehicle: saline); 97 % of control (dose: 400.0 mg/kg/injection, schedule: Q04DX003 (ip), vehicle: saline).
For the compound `CCN(CC)CCN(C)C`, the T/C is, setting by setting: under setting [6], 118 % of control; under setting [4], 112 % of control; under setting [5], 103 % of control.
In the case of `COc1cc2c[n+](C)c3c4cc5c(cc4ccc3c2cc1OC)OCO5` (tested in a mixture with another compound), the T/C reads like this: (dose: 0.78 mg/kg/injection, schedule: Q01DX009 (ip), vehicle: distilled water + Tween-80) 105 % of control; (dose: 1.56 mg/kg/injection, schedule: Q01DX009 (ip), vehicle: distilled water + Tween-80) 97 % of control; (dose: 3.13 mg/kg/injection, schedule: Q01DX009 (ip), vehicle: distilled water + Tween-80) 118 % of control; (dose: 5.0 mg/kg/injection, schedule: Q01DX009 (ip), vehicle: saline) 116 % of control; under setting [7], 110 % of control; under setting [1], 124 % of control. Moreover, the T/C is, setting by setting: under setting [2], 114 % of control; (dose: 40.0 mg/kg/injection, schedule: Q01DX009 (ip), vehicle: saline) 159 % of control; under setting [3], 92 % of control; (dose: 80.0 mg/kg/injection, schedule: Q01DX009 (ip), vehicle: saline) 98 % of control.
On to `CC1OC(OC2CC(O)(C(=O)CO)Cc3c(O)c4c(c(O)c32)C(=O)c2ccccc2C4=O)CC(N)C1O` (centres undefined), for which the T/C is 102 % of control (dose: 0.1 mg/kg/injection, schedule: Q01DX001 (ip), vehicle: water); 121 % of control (dose: 130.0 micrograms/kg/injection, schedule: Q01DX004 (ip), vehicle: other); 182 % of control (dose: 216.0 micrograms/kg/injection, schedule: Q04DX003 (ip), vehicle: water); 114 % of control (dose: 600.0 micrograms/kg/injection, schedule: Q01DX004 (ip), vehicle: other); 150 % of control and 283 % of control (dose: 600.0 micrograms/kg/injection, schedule: Q04DX003 (ip), vehicle: water); 154 % of control and 211 % of control (dose: 1000.0 micrograms/kg/injection, schedule: Q04DX003 (ip), vehicle: water).
In the case of `C=CCN1C(=O)C=CC1=O`, the T/C (dose: 0.75 mg/kg/injection, schedule: Q01DX009 (ip), vehicle: saline) is 102 % of control and the T/C (dose: 1.5 mg/kg/injection, schedule: Q01DX009 (ip), vehicle: saline) was 93 % of control.
Take `CS(=O)(=O)ON1C(=O)c2ccccc2C1=O`: the T/C runs as follows: (dose: 1.56 mg/kg/injection, schedule: Q01DX009 (ip), vehicle: Klucel (hydroxypropylcellulose) (HPC)) 100 % of control; (dose: 3.12 mg/kg/injection, schedule: Q01DX009 (ip), vehicle: Klucel (hydroxypropylcellulose) (HPC)) 98 % of control; under setting [7], 94 % of control.
With `C=CCOCCN1CCN(CCCN2c3ccccc3Sc3ccc(C(F)(F)F)cc32)CC1`, the T/C was 102 % of control (dose: 0.31 mg/kg/injection, schedule: Q01DX009 (ip), vehicle: saline); 95 % of control (dose: 0.62 mg/kg/injection, schedule: Q01DX009 (ip), vehicle: saline); 102 % of control under setting [8]; 114 % of control under setting [9].
As for `COc1cc2c(c(OC)c1OC)C(=O)/C(=C\c1ccccc1)O2`, the T/C is, setting by setting: (dose: 6.25 mg/kg/injection, schedule: Q01DX009 (ip), vehicle: saline with Tween-80) 101 % of control; under setting [10], 106 % of control; under setting [11], 103 % of control; (dose: 50.0 mg/kg/injection, schedule: Q01DX009 (ip), vehicle: saline with Tween-80) 86 % of control.
Consider `CCC(=O)OC1(c2ccccc2)CCN(C)C1C` (centres undefined), for which the T/C reads like this: under setting [12], 102 % of control; under setting [13], 102 % of control; (dose: 25.0 mg/kg/injection, schedule: Q01DX009 (ip), vehicle: saline) 95 % of control; under setting [6], 97 % of control; under setting [4], 90 % of control.
For `Nc1c2c(nc3ccccc13)CCCC2`, the T/C by setting is: (dose: 0.19 mg/kg/injection, schedule: Q01DX009 (ip), vehicle: saline) 95 % of control; (dose: 0.39 mg/kg/injection, schedule: Q01DX009 (ip), vehicle: saline) 95 % of control; under setting [8], 100 % of control; under setting [9], 95 % of control; (dose: 3.12 mg/kg/injection, schedule: Q01DX009 (ip), vehicle: saline) 102 % of control; under setting [12], 91 % of control. Further, the T/C under setting [13] is 100 % of control.
As to `NC(Cc1cc(Cl)c(O)c(Cl)c1)C(=O)O` (centres undefined), the T/C was 94 % of control under setting [4]; 100 % of control (dose: 150.0 mg/kg/injection, schedule: Q01DX009 (ip), vehicle: saline); 98 % of control under setting [5].
Consider `CC1=NCCc2c1cc1c([nH]c3ccccc31)c2C`, for which the T/C is 105 % of control under setting [10] and 110 % of control under setting [11].
`Oc1cc(N2CC2)c(O)cc1N1CC1`: the T/C is 123 % of control (dose: 0.22 mg/kg/injection, schedule: Q01DX009 (ip), vehicle: saline); 188 % of control (dose: 0.44 mg/kg/injection, schedule: Q01DX009 (ip), vehicle: saline); 156 % of control and 159 % of control (dose: 0.68 mg/kg/injection, schedule: Q01DX009 (ip), vehicle: saline).

The record behind these values is PubChem BioAssay AID192 (DTP/NCI, 2004).
